Data on 10 compounds can be found in US20180327364A1, “MTOR INHIBITORS AND METHODS OF USE THEREOF” (Brandeis University, priority 2015, published 2018).

Type in all cases: cell-based
Assay [1] concerns firefly luciferase. Description: Luciferase assay in stably transduced luciferase HEK-293T cells. As to conditions: for wild type luciferase signal: HEK-293T cells expressing HA-luciferase, 100 μM, 4 h; for luciferase levels / activity, inhibitor alone: 100 μg/mL cycloheximide or 6 μM bortezomib. On the procedure: Firefly luciferase and firefly luciferase-eDHFR were cloned into pBABE-puro vector which was a gift from Hartmut Land & Jay Morgenstern & Bob Weinberg (Addgene plasmid #1764). pBABE-puro-luciferase was co-transfected with VSV-G into GP2-293 cells (Retro-X Universal Packaging System, Clonetech, Mountain View, Calif.) with TransIT-2020 (MirusBio) according to TransIT-2020's manufacture's protocol. After 48 h, viral supernatant was harvested, spun down, filtered with a […] syringe filter, and added to HEK-293T supplemented with 8 μg/mL polybrene. After 4 h of infection, the media was replaced with fresh media. 48 h later, media was replaced with media containing 3 μg/mL puromycin. Media was replaced with fresh media containing puromycin every 3-4 days. After 2 weeks of puromycin selection, the cells were grown out from single cell colonies and screened for luciferase expression.
Stably transduced luciferase HEK-293T cells were plated in 96-well plates 24 h prior to treatment with 100 μM of Cbz-B3A, amine-B3A, acetyl-B3A, and Cbz-acetyl. After 4 h, cells were harvested and measured with Luciferase Assay System with Reporter Lysis Buffer from Promega according to the manufacturer's protocol. Before the addition of luciferin, protein concentration was measured by removing 2 μl of lysate from each well and adding it to diluted Bio-Rad Protein Assay Dye Reagent Concentrate, and the absorbance was measured at OD595. The protein concentration was used to normalize luciferase signal. For translation assays, cells were pretreated for 15 min with 100 μg/mL cycloheximide or 6 μM bortezomib. For the recombinant luciferase assay, Quantilum Recombinant Luciferase (Promega) was diluted 1:250,000 in reporter lysis buffer with 1 mg/mL BSA then mixed 1:1 with 200 μM compound in the same buffer for a final dilution of 1:500,000 and 100 μM compound in 20 μL. This was incubated for 10 min at room temperature then measured with Luciferase Assay System with Reporter Lysis Buffer from Promega according to the manufacturer's protocol.

For assay [2], the system named is 4EBP1 phosphorylation by mTORC1. Description: 4EBP1 phosphorylation immunoblot in HEK-293T cells. The procedure:
(§1) Quantification of western blots was performed with ImageJ. Cells were lysed in RIPA buffer (1% NP-40, 1% NaDeoxycholate, 0.1% SDS, 10 mM TrisCl, 10 mM β-glycerophosphate, 10 mM Na pyrophosphate, 50 mM NaF, 200 μM Na vanadate, 1 mM EDTA, 500 μM EGTA, 1% benzonase, and supplemented with complete (Roche Diagnostics) protease inhibitors).

For assay [3], the system named is firefly luciferase. Put plainly: Luciferase assay in stably transduced luciferase HEK-293T cells. Conditions: HEK-293T luciferase-eDHFR and wild-type luciferase cells; 200 TMP-B3A (unit not given) vs DMSO.
Assay [4] has as its system protein translation in HEK-293T cells. Description: 35S-methionine/cysteine incorporation translation assay. Conditions: saturating concentration (Cbz-B3A 10 μM); 4 h treatment then 1 h labeling. On the procedure:
80,000 cells/well of HEK-293T cells were plated into 24 well plates 24 h before the assay. Cells were treated with indicated concentration of compound for 4 h. After 4 h, the media was removed and replaced with DMEM without methionine and cysteine (Lifetechnologies) supplemented with 0.2 mCi/mL EXPRESS [^35S] protein labeling mix (PerkinElmer), 10% dialyzed FBS (Pierce), 1× glutaMax (Gibco), 100 U/mL penicillin 100 μg/mL streptomycin (Gibco), 1 mM sodium pyruvate (Lifetechnologies), and the indicated concentration of compound. After 1 h, this media was removed, cells were washed with ice cold PBS, and lysed with low deoxycholate RIPA buffer (10 mM Tris-Cl, 1% NP-40, 0.5% Na Deoxycholate, 0.1% SDS, 140 mM NaCl, 1 mM EDTA, 500 μM EGTA, 1× Roche Complete protease inhibitors, 1:100 Benzonase, and at pH 8.0). Lysate was centrifuged at maximum speed for 20 m at 4° C. The concentration was measured by Bradford assay. 10 μg of lysate was added to […] ice cold 1 mg/mL BSA with 0.02% Na Azide. 1 mL of ice cold 10% TCA was added, the solutions were mixed and incubated on ice for 0.5 h. These mixtures were vacuum filtered onto GF/C Whatman glass microfiber filters. The filters were washed with 2×5 mL of 10% TCA, then 2×3 mL ethanol. The filters were then dried for a 0.5 h. The filters were placed into scintillation vials with 5 mL of scintillation fluid and read on a scintillation counter.

The next assay relates to eIF2α. Description: eIF2α phosphorylation immunoblot in HEK-293T cells. As to conditions: 1 h; tunicamycin 5 μg/mL, thapsigargin 500 nM; compared with vehicle. On the procedure:
as §1
Background: In western blotting, separated proteins are transferred to a membrane and probed.

On to `CC(C)(C)OC(=O)/N=C(\NCCC[C@H](NC(=O)OC(C)(C)C)C(=O)NCCCCCCN)NC(=O)OC(C)(C)C` [Amine-B3A], for which, in the assay with firefly luciferase [1], the “wild type luciferase signal” value is recorded as “decreased the wild type luciferase signal”.

For `CC(C)C[C@H](NC(=O)[C@H](Cc1ccccc1)NC(=O)c1cnccn1)B(O)O` [Bortezomib, reference compound], in the assay on firefly luciferase [1], the “luciferase levels / activity, inhibitor alone” value is “decreased luciferase levels”.

`CC(=O)NCCCCCCNC(=O)OCc1ccccc1` [Cbz-acetyl]: in the assay on firefly luciferase [1], the “wild type luciferase signal” value is “not reduced”. Also, in assay [2] (Cbz-B3A 10 μM, Cbz-acetyl 10 μM, rapamycin 20 nM, 4 h), the “4EBP1 phosphorylation (hyper- vs hypo-phosphorylated band)” value was “No shift”.

`CC(C)(C)OC(=O)/N=C(/NCCCC(NC(=O)OC(C)(C)C)C(=O)NCCCCNC(=O)OCc1ccccc1)NC(=O)OC(C)(C)C` (centres unmarked) [JX-8]: the “4EBP1 phosphorylation, comparison with Cbz-B3A” value in assay [2] (20 μM, 3 h, anti-4EBP1 western blot) is given as “more potent mTOR inhibitor than CB3A”.

As for `COc1cc(Cc2cnc(N)nc2N)cc(OC)c1OCC(=O)NCCCCCCNC(=O)[C@H](CCCN/C(=N\C(=O)OC(C)(C)C)NC(=O)OC(C)(C)C)NC(=O)OC(C)(C)C` [TMP-B3A], the luciferase signal entry in the assay on firefly luciferase [3] was “reduced luciferase signal to similar levels in both luciferase-eDHFR and wild-type luciferase cells”.

For `CC(=O)NCCCCCCNC(=O)[C@H](CCCN/C(=N\C(=O)OC(C)(C)C)NC(=O)OC(C)(C)C)NC(=O)OC(C)(C)C` [acetyl-B3A], in the assay on firefly luciferase [1], the “wild type luciferase signal” value is on record as “decreased the wild type luciferase signal”.

With `C[C@@H]1C[C@@H]([C@H](O)CC2CC(=O)NC(=O)C2)C(=O)[C@@H](C)C1` [cycloheximide, reference compound], the “luciferase levels / activity, inhibitor alone” value in the assay on firefly luciferase [1] is recorded as “luciferase activity decreased”.

In the case of `CO[C@H]1C[C@@H]2CC[C@@H](C)[C@@](O)(O2)C(=O)C(=O)N2CCCC[C@H]2C(=O)O[C@H]([C@H](C)C[C@@H]2CC[C@@H](O)[C@H](OC)C2)CC(=O)[C@H](C)/C=C(\C)[C@@H](O)[C@@H](OC)C(=O)[C@H](C)C[C@H](C)/C=C/C=C/C=C/1C` [rapamycin, reference compound], in assay [4], the “maximal inhibition of translation (35S-methionine/cysteine incorporation)” value was 35%.

Regarding `C/C=C(/C)C(=O)O[C@H]1C(C)=C2[C@H]([C@@H]1OC(=O)CCCCCCC)[C@@](C)(OC(C)=O)C[C@H](OC(=O)CCC)[C@@]1(O)[C@H]2OC(=O)[C@@]1(C)O` [thapsigargin], the eIF2α phosphorylation result in the assay on eIF2α is on record as “increased phosphorylation of eIF2α”.

On to tunicamycin, for which, in the assay on eIF2α, the eIF2α phosphorylation entry is recorded as “increased phosphorylation of eIF2α”.
